Key:
[1] = Photofading under iodine-tungsten lamp irradiation in Tris-HCl buffer; format: physicochemical; conditions: 5×10^−6 M in Tris-HCl 10 mM pH 7.4; 500 W iodine-tungsten lamp, 20 cm; after 6 h of radiation
Experimental: 5×10^−6M solutions of compounds C, D, E and reference compound M1 in Tris-HCl (10 mM, pH=7.4, same below) buffer were be sealed into the cuvettes respectively. To absorb short wavelength light (<400 nm), a trap of glass containing 50 g/L NaNO2 was set up between the cells and the lamp. In the other hand, NaNO2 solution can be used as a cold trap to keep the sample at room temperature. After the absorption of samples were monitored, solutions of the samples were irradiated with a 500 W iodine-tungsten lamp. The distance between the cells and the lamp was 20 cm. The irreversible bleaching of the dyes at the absorption peak was monitored as a function of time at 1 hour intervals. The equipment used is a UV-Vis spectrophotometer Lambda 8453.

[2] = tested on: CT DNA; experiment: Fluorescence quantum yield in the presence of DNA; format: physicochemical; conditions: 1 μM in Tris-HCl buffer, saturated DNA; Rhodamine B as standard; mean of triplicate
Experimental: A saturated amount of CT DNA was added into the 1 μM compound C solution in Tris-HCl buffer to keep a maximum absorbance less than 0.1 as determined by a UV-Vis Spectrophotometer. Fluorescence intensities are measured at selected excitation wavelengths of 545 nm, 550 nm and 555 nm, respectively. For each compound, the determination is made in triplicate, the fluorescence quantum yield of each determination is calculated, and the mean value is taken. Using Rhodamine B as the standard (ΦF=0.97, methanol, 15° C.), the calculated fluorescence quantum yields in buffer solution of compound C in the presence of DNA is 0.73. The equipments used are a UV-Vis spectrophotometer (Hp8453) and a spectrofluorophotometer (PTI-700).
A saturated amount of DNA was added into the 1 μM reference compound M1 solution in Tris-HCl buffer to keep a maximum absorbance less than 0.1 as determined by a UV-Vis Spectrophotometer. Fluorescence intensities are measured at selected excitation wavelengths of 585 nm, 590 nm and 595 nm, respectively. For each compound, the determination is made in triplicate, the fluorescence quantum yield of each determination is calculated, and the mean value is taken. Using Rhodamine B as the standard (ΦF=0.97, methanol, 15° C.), the calculated fluorescence quantum yields in buffer solution of reference compound M1 in the presence of DNA is 0.16. […]

[3] = tested on: living cells; experiment: MTT cytotoxicity assay in living cells; format: cell-based; conditions: 6 h, serial concentrations 0, 1, 3, 5 μM
Experimental: The Compounds C, D, E and reference compound M1 at serial concentrations (0, 1, 3, and 5 μM) were added to cells counted in a confocal microscope dish for 6 h. Then MTT tetrazolium solution (100 μL of 0.5 mg/ml in PBS) was added to each well, and the cells further incubated for 2 h. Excess MTT tetrazolium solution was then carefully removed and the colored formazan was dissolved in dimethyl sulfoxide (DMSO). The absorbance was measured at 490 nm using a microplate reader to measure the toxicity of compound.

[4] = tested on: CT DNA; experiment: Absorption and fluorescence emission spectra in the absence and presence of DNA in buffer; format: physicochemical; conditions: 2 μM in Tris-HCl buffer, absence and presence of saturated CT DNA; for maximum emission wavelength: excitation 550 nm
Experimental: 2 μM solutions of compounds C, D, and E in Tris-HCl (10 mM, pH=7.4, same below) buffer were be added into the cuvettes and determined its absorption respectively. The exited wavelength of the fluorescence spectra was 550 nm for all compounds. A saturated amount of CT DNA was added into the above solution, then the solution was determined its absorption respectively. The exited wavelength of the fluorescence spectra was 550 nm for all compounds. The equipments used are a UV-Vis spectrophotometer (Hp8453) and a spectrofluorophotometer (PTI-700). FIGS. 2, 3, and 4 are the absorption and fluorescence emission spectra of compounds C, D, and E in the absence and presence of DNA respectively in buffer solution respectively. […] Therefore, in confocal fluorescence image tests of compounds, the exited wavelength is selected 559 nm and the collected emission wavelength was 575-625 nm.

[5] = tested on: MCF7 cells; experiment: Fluorescence imaging of live cells stained with dye; format: cell-based, human; conditions: 45 min, compound D 2 μM, M1 3 μM, confocal microscopy
Experimental: MCF7 cells (human breast adenocarcinoma cell line) were cultured in DEME medium supplemented with 10% fetal bovine serum at 37° C. in an atmosphere containing 5% CO2 for 24 h. For live cell imaging, compound D (2 μM) or reference compound M1 (3 μM) was added to cells for 45 min and washed with PBS (phosphate-buffered saline) three times. After replacement of the medium, cells were imaged using a confocal fluorescence microscope. […] The confocal laser scanning microscope is Olympus FV1000.

[6] = tested on: MCF7 cells; experiment: Colocalization fluorescence imaging with commercial nucleic acid stain SYTO9; format: cell-based, human; conditions: compound E 2.0 μM 45 min after SYTO9 3.0 μM 45 min; λex=559 nm, λem=575-625 nm
Experimental: The cells were cultured as shown example 10, were first cultured with 3.0 μM of available commercial nucleic acid stain SYTO9 for 45 min, and then washed with PBS three times. Cells were then incubated with compound E (2.0 μM) for 45 min, and then washed with PBS three times. After replacement of DEME medium, cells were imaged using confocal fluorescence microscope.
FIG. 6a is the fluorescence image of SYTO 9 (λex=488 nm, λem=500 nm to 550 nm) and FIG. 6b is the fluorescence image of compound E (λex=559 nm, λem=575 nm to 625 nm). […] The equipment used is an Olympus FV1000 confocal laser scanning microscope.

[7] = tested on: CT DNA; conditions: methanol, 15° C.; cited from earlier work

| maximum absorption wavelength [4] | maximum emission wavelength [4] | Compound | optical density remaining after radiation (photostability) [1] [%] | fluorescence quantum yield in the presence of DNA [2] | cytotoxicity in high concentration relative to M1 [3] | cytotoxicity in low concentrations [3] | staining pattern in live cells [5] | subcellular regions stained (colocalization with SYTO9) [6] | fluorescence quantum yield of standard (ΦF) [7] |
| --- | --- | --- | --- | --- | --- | --- | --- | --- | --- |
| about 545 nm | about 610 nm | CN1/C(=C(C#N)\C=C\c2cc[n+](CCO)c3ccccc23)Sc2cc(Cl)ccc21.Cl [Compound D] | 90 | – | less cytotoxic than reference compound M1 | low cytotoxicity | clear nucleolar staining as well as faint nucleus staining | – | – |
| about 545 nm | about 610 nm | C=CCCN1/C(=C(C#N)\C=C\c2cc[n+](CC)c3cc(OC)ccc23)Sc2ccccc21.[I-] [Compound E] | 90 | – | – | – | – | nucleus and nucleolus | – |
| – | – | CC[n+]1ccc(/C=C/C=C2/Sc3ccccc3N2C)c2ccccc21.[I-] [Compound M1, reference compound] | ~0 | 0.16 | – | low cytotoxicity | clear nucleolar staining as well as faint nucleus staining | – | – |
| – | – | CCN(CC)c1ccc2c(-c3ccccc3C(=O)O)c3ccc(=[N+](CC)CC)cc-3oc2c1.[Cl-] [Rhodamine B] | – | – | – | – | – | – | 0.97 |

| Compound | maximum absorption wavelength [4] | maximum emission wavelength [4] | optical density remaining after radiation (photostability) [1] [%] | fluorescence quantum yield in the presence of DNA [2] | cytotoxicity in high concentration relative to M1 [3] | cytotoxicity in low concentrations [3] | staining pattern in live cells [5] | subcellular regions stained (colocalization with SYTO9) [6] | fluorescence quantum yield of standard (ΦF) [7] |
| --- | --- | --- | --- | --- | --- | --- | --- | --- | --- |
| CC[n+]1ccc(/C=C/C(C#N)=C2/Sc3ccccc3N2C)c2ccccc21.[I-] [Compound C] | about 545 nm | about 610 nm | 90 | 0.73 | less cytotoxic than reference compound M1 | low cytotoxicity | – | – | – |
